Experimental findings from patent US20140120083A1, “TREATMENT OF CANCERS USING PI3 KINASE ISOFORM MODULATORS” (INFINITY PHARMACEUTICALS, INC., priority 2012, published 2014) are described below.

For one assay, the target named is PI3K δ (Homo sapiens, UniProt O00329). The experiment in a line: In vitro IC50, PI3K δ. It is filed as biochemical. More on the design: purchased Upstate. An excerpt: (§1) An exemplary system is PI 3-Kinase (human) HTRF™ Assay from Upstate.
Another assay has as its target T1, PI3K α (Homo sapiens, UniProt P42336).
T1 construct: purchased Upstate
Kind of assay: In vitro IC50, PI3K α. Format: biochemical.
Text: as §1

For a further assay, the target named is T2, PI3K γ (Homo sapiens, UniProt P48736).
T2 construct: purchased Sigma
T2 sequence (P48736 whole entry): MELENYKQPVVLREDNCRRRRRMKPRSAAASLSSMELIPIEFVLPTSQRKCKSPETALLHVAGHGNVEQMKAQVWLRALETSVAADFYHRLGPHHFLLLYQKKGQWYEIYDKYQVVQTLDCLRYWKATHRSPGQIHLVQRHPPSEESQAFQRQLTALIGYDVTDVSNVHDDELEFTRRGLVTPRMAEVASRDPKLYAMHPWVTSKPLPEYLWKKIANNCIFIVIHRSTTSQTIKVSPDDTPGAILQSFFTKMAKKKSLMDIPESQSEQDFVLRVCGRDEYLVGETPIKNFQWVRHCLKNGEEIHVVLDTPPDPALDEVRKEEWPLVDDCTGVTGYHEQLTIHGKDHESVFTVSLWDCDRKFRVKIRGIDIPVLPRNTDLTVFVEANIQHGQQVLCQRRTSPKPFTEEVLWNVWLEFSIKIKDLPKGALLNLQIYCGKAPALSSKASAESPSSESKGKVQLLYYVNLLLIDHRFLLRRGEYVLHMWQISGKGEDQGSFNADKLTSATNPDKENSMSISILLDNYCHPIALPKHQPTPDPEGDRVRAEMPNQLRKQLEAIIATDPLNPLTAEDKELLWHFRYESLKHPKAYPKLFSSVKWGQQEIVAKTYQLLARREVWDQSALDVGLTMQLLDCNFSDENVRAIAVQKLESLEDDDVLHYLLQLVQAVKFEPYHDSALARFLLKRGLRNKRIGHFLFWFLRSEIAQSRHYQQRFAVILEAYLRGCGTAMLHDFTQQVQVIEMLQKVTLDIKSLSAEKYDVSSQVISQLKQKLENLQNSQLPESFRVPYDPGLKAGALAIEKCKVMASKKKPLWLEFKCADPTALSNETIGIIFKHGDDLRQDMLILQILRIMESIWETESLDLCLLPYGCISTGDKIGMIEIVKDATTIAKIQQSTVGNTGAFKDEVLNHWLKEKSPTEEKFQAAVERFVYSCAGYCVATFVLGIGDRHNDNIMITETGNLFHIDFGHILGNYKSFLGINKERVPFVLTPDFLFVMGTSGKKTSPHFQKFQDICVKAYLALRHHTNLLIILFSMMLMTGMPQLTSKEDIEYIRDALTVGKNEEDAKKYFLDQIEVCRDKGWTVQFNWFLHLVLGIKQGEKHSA
Kind of assay: In vitro IC50, PI3K γ. It is filed as biochemical.
Text: as §1

In another assay the target is PI3K β (Homo sapiens, UniProt P42338). The experiment in a line: In vitro IC50, PI3K β. Format: biochemical.
PI3K β, sequence (P42338 whole entry): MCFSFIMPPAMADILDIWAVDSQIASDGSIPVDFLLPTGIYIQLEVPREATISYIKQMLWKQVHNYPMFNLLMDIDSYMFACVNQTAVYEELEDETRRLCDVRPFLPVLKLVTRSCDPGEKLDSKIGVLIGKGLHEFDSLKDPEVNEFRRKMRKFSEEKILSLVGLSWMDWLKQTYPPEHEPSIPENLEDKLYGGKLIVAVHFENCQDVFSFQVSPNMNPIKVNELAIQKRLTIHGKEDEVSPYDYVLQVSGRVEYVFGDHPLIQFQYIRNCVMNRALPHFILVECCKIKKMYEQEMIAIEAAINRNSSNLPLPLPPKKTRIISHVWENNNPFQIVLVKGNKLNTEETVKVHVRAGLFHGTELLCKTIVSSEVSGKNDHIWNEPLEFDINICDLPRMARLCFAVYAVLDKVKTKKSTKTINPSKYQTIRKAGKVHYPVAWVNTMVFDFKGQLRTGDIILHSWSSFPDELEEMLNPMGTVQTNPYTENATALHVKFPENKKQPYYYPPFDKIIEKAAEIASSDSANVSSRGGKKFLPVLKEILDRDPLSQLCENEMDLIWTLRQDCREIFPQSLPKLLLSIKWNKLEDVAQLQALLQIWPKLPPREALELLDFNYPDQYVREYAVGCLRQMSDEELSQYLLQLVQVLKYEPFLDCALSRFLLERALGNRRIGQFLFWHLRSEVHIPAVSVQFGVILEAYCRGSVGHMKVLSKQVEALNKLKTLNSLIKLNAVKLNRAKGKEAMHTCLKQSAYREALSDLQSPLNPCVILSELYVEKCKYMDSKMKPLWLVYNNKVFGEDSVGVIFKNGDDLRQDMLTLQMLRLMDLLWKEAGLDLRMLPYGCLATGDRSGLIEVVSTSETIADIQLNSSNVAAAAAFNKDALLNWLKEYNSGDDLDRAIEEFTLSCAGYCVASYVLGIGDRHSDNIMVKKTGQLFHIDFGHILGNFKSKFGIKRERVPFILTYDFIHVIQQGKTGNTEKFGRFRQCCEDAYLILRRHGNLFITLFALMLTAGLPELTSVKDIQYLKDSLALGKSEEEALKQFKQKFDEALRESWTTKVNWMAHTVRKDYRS
Text: as §1

The subject of another assay is B cell. Kind of assay: B cell proliferation. It is filed as cell-based.

What is called IC50 is the point on the concentration scale where inhibition reaches its midpoint. A lower IC50 goes with greater potency in that assay. The EC50 is the concentration at which the effect is half-maximal. Low readings indicate higher potency in that assay, high ones lower potency in that assay.

T1 sequence (P42336 whole entry): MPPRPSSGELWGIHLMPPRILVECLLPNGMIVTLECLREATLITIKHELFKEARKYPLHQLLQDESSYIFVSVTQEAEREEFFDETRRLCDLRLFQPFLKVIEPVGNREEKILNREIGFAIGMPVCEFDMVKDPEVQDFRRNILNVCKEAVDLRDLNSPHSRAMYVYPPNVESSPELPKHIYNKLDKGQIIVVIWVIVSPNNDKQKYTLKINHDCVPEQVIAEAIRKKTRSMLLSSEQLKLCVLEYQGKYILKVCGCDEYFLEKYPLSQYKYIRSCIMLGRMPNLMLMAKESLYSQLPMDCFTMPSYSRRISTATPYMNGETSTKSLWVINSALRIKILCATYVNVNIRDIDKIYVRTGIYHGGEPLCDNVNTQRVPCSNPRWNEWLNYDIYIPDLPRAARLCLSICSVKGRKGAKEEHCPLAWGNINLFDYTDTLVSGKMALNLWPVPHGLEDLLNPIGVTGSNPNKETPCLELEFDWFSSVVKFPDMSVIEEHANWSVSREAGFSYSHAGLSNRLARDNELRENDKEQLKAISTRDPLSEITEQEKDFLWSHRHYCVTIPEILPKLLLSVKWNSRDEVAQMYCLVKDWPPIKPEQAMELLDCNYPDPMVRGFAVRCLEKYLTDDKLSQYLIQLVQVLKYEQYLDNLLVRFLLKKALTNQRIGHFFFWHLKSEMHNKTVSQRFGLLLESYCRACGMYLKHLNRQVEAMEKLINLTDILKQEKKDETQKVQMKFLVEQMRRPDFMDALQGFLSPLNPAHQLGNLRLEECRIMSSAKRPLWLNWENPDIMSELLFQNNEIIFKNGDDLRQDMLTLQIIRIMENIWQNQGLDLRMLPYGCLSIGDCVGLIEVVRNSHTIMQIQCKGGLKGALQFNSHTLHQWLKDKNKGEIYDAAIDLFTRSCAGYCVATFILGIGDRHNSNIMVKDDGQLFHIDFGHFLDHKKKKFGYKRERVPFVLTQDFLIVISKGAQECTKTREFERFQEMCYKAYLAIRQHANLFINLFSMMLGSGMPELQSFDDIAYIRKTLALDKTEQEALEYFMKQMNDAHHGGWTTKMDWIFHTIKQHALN
T1 sequence (P27986 whole entry partner): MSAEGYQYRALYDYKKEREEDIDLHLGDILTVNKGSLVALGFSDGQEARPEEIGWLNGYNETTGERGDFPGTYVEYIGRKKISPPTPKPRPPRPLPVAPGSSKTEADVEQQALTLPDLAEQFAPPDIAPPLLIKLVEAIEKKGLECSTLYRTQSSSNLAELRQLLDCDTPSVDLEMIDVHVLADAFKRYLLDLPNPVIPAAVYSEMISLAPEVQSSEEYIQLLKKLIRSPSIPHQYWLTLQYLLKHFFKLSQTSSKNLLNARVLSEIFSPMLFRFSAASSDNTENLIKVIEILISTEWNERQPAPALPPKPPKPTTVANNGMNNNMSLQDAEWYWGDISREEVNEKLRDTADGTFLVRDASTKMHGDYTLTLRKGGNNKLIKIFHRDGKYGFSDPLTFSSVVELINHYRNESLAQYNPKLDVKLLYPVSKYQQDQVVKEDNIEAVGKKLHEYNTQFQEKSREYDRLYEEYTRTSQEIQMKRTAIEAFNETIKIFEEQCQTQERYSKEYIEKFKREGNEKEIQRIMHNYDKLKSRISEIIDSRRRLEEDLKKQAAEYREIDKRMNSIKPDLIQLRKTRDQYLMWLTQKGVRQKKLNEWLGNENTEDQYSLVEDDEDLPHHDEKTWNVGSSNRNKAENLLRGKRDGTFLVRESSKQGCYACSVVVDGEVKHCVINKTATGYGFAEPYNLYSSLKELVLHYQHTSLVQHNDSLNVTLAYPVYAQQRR
PI3K δ, sequence (O00329 whole entry): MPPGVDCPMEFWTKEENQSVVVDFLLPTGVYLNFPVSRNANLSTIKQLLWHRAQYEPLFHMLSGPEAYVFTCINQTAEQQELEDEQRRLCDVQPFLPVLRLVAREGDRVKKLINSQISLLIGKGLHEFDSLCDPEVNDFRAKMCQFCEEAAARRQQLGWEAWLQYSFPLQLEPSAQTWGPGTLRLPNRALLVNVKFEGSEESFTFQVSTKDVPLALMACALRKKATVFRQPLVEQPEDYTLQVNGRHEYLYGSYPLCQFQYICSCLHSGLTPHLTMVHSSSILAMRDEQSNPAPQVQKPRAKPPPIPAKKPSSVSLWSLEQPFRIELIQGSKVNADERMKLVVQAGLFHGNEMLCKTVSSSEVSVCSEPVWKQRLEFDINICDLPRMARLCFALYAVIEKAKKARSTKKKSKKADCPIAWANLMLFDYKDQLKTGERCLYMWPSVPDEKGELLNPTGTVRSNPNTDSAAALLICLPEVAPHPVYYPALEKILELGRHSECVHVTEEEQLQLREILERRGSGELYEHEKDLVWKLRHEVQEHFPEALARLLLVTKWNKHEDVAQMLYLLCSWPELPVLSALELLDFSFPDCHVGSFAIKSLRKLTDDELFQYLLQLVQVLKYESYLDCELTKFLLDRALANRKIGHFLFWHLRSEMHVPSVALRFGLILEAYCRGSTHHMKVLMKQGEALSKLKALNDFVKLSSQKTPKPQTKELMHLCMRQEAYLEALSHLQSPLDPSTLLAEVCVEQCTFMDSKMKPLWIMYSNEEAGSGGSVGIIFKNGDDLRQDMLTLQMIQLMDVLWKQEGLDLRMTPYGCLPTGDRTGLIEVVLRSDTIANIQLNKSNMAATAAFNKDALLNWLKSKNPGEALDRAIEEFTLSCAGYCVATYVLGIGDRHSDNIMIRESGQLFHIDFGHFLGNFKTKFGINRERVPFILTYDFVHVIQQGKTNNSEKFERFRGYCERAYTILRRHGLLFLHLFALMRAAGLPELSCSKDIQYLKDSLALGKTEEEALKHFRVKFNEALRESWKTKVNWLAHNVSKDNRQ
PI3K δ, sequence (P27986 whole entry partner): as the sequence (P27986 whole entry partner) above

For `Cc1cccc2cc(Cn3nc(Br)c4c(N)ncnc43)n(-c3ccccc3F)c(=O)c12` [Compound 35], the IC50 is < 1 µM on PI3K δ, > 10 µM on PI3K α, < 10 µM on PI3K γ and > 10 µM against PI3K β.
With `Cc1ccccc1-n1c(Cn2nc(-c3ccc(Cl)c(O)c3)c3c(N)ncnc32)cc2ccccc2c1=O` [Compound 52], the IC50 at PI3K δ was < 0.1 µM; against PI3K α, > 10 µM; against PI3K γ, < 0.1 µM; on PI3K β, > 10 µM.
For the molecule `Cc1cccc2cc([C@H](C)Nc3nc(N)ncc3Cl)n(C3CC3)c(=O)c12` [Compound 267], the IC50 on PI3K δ is < 0.1 µM; at PI3K α, > 10 µM; at PI3K γ, < 1 µM; against PI3K β, < 1 µM.
As for `Cc1cccc2cc(Cn3nc(Cl)c4c(N)ncnc43)n(-c3ccccc3F)c(=O)c12` [Compound 34], the IC50 is < 1 µM on PI3K δ, > 10 µM against PI3K α, < 10 µM against PI3K γ and > 10 µM at PI3K β.
`Cc1ccccc1-n1c(Cn2nc(-c3ccc(Cl)c(O)c3)c3c(N)ncnc32)cc2cccc(C)c2c1=O` [Compound 23]: the IC50 at PI3K δ was < 0.1 µM; against PI3K α, > 10 µM; at PI3K γ, < 0.1 µM; on PI3K β it was < 10 µM.
For the molecule `Cc1cccc2cc(Cn3nc(-c4ccc(Cl)c(O)c4)c4c(N)ncnc43)n(C3CCCC3)c(=O)c12` [Compound 71], the IC50 on PI3K δ is < 1 µM; against PI3K α, > 10 µM; against PI3K γ, < 1 µM; against PI3K β, < 10 µM.
In the case of `Cc1cccnc1-n1c(Cn2nc(-c3cc(O)cc(F)c3)c3c(N)ncnc32)cc2ccccc2c1=O` [Compound 93], the IC50 against PI3K δ is < 0.1 µM; at PI3K α, > 10 µM; against PI3K γ, < 1 µM; against PI3K β it was > 10 µM.
Consider `Cc1cccc2cc(Cn3nc(I)c4c(N)ncnc43)n(C3CC3)c(=O)c12` [Compound 86], for which the IC50 at PI3K δ was < 0.1 µM; on PI3K α it was < 10 µM; on PI3K γ it was < 0.1 µM; on PI3K β, < 10 µM.
For the molecule `Cc1ccccc1-n1c(Cn2nc(I)c3c(N)ncnc32)cc2cccc(C)c2c1=O` [Compound 6], the EC50 with B cell was < 0.1 µM. In addition, the IC50 on PI3K δ was < 0.1 µM; against PI3K α, > 10 µM; at PI3K γ, < 0.1 µM.
On to `Cc1cccnc1-n1c(Cn2nc(C#C[C@@H](C)O)c3c(N)ncnc32)cc2cccc(C)c2c1=O` [Compound 69], for which the IC50 at PI3K δ is < 1 µM; on PI3K α, > 10 µM; against PI3K γ, > 10 µM; at PI3K β it was > 10 µM.
Turning to `Cc1cccc2cc(Cn3nc(C#C[C@@H](C)O)c4c(N)ncnc43)n(-c3ccccc3F)c(=O)c12` [Compound 28], the IC50 against PI3K δ was < 0.1 µM; on PI3K α, > 10 µM; against PI3K γ it was < 1 µM; against PI3K β, > 10 µM.
In the case of `Cc1cccc2cc([C@H](C)Nc3ncnc4[nH]ccc34)n(C3CC3)c(=O)c12` [Compound 273], the IC50 is < 0.1 µM against PI3K δ, < 10 µM on PI3K α, < 0.1 µM against PI3K γ and < 0.1 µM against PI3K β.
Regarding `Cc1ccccc1-n1c(Cn2nc(/C=C/C(=O)N3CCOCC3)c3c(N)ncnc32)cc2cccc(C)c2c1=O` [Compound 192], the IC50 on PI3K δ was < 1 µM; against PI3K α, > 10 µM; at PI3K γ it was > 10 µM; against PI3K β, > 10 µM.
`Cc1cccc2cc(Cn3nc(-c4cc(O)cc(F)c4)c4c(N)ncnc43)n(C(C)C)c(=O)c12` [Compound 66]: the IC50 on PI3K δ is < 0.1 µM; at PI3K α it was < 10 µM; at PI3K γ it was < 1 µM; against PI3K β it was < 1 µM.
Regarding `Cc1ccccc1-n1c(Cn2nc(-c3cccc(F)c3)c3c(N)ncnc32)cc2cccc(C)c2c1=O` [Compound 41], the IC50 is < 10 µM against PI3K δ, > 10 µM on PI3K α, < 1 µM on PI3K γ and > 10 µM against PI3K β.
Take `C=Cc1nn(Cc2cc3cccc(C)c3c(=O)n2-c2ccccc2F)c2ncnc(N)c12` [Compound 179]: the half-maximal inhibitory concentration (IC50) against PI3K δ is < 1 µM; at PI3K α, > 10 µM; at PI3K γ, < 10 µM; against PI3K β, > 10 µM.
For the molecule `Cc1cccc2cc(Cn3nc(C#C[C@@H](C)O)c4c(N)ncnc43)n(C3CCCC3)c(=O)c12` [Compound 65], the IC50 against PI3K δ was < 0.1 µM; against PI3K α, > 10 µM; on PI3K γ, < 10 µM; at PI3K β, < 10 µM.
